Like-named read-outs stand apart in the source and are kept apart here.
Tests used:
[1] = In vivo pharmacokinetic evaluation in mouse; parameters: species or system female balb/c nude mice; conditions: female, balb/c nude, plasma, 3 mg/kg IV
OVCAR-3 xenografts = experiment: 28 day in vivo efficacy in OVCAR-3 xenografts; parameters: species or system female NOD SCID mice; conditions: 10 and 30 mg/kg QD, 28 days
Method: Experiments were performed in female NOD SCID mice (GenPharmatech Co.). Animals were allowed to acclimate for 7 days before the study. The general health of the animals were evaluated by a veterinarian, and complete health checks were performed prior to the study. General procedures for animal care and housing were in accordance with the standard, Commission on Life Sciences, National Research Council, Standard Operating Procedures (SOPs) of Pharmaron, Inc. The mice were kept in laminar flow rooms at constant temperature and humidity with 3-5 mice in each cage. Animals were housed in polycarbonate cages which had dimensions of 300×180×150 mm^3 and in an environmentally monitored, well-ventilated room maintained at a temperature of 23±3° C. and a relative humidity of 40%-70%. Fluorescent lighting provided illumination approximately 12 hours per day. […]
The OVCAR-3 (ATCC) tumor cell lines were maintained in vitro as a monolayer in RPMI 1640 medium supplemented with 20% heat inactivated FBS, at 37° C. in an atmosphere of 5% CO2 in air. The tumor cells were sub-cultured, not exceeding 4-5 passages, and cells growing in an exponential growth phase were harvested and counted for tumor inoculation. […]
The measurement of tumor size was conducted with a caliper and recorded twice per week. […]

KIF18A = biological target: T1, KIF18A (Homo sapiens, UniProt Q8NI77); experiment: KIF18A Biochemical Assay (ATPase, ADP-Glo)
T1 construct: A solution of KIF18A (0.4 nM, 5 μL/well; 1-367) in assay buffer
T1 sequence (Q8NI77 1-367): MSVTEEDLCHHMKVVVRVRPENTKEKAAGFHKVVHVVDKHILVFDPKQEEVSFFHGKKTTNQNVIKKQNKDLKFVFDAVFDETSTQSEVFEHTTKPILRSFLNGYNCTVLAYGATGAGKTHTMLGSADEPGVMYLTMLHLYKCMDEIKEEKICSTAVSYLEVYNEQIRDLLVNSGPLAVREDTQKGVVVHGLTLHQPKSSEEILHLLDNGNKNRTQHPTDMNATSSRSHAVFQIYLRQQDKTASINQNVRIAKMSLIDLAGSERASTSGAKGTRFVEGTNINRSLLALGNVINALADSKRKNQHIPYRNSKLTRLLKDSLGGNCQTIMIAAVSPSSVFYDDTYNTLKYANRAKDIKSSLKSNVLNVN

[2] = Caco-2 permeation assay (bidirectional permeability); format: in vitro ADME; conditions: human, Caco-2, pH 7.4
Method: Samples were analyzed through LC/MS/MS for estimating the apparent permeability coefficients (Papp) of compounds across Caco-2 cell monolayers. Caco-2 cells (American Type Culture Collection) were incubated and seeded onto HTS Transwell-96 Well Permeable Supports (Corning Corporation) for 14 days using a cell medium consisting of Dulbecco's Modified Eagle's Medium (DMEM) with high glucose and L-glutamine supplemented with 10% FBS, 1× penicillin-streptomycin mixture and 1×non-essential amino acids (NEAA). Cell monolayer integrity was measured using an automated tissue resistance measuring system (World Precision Instruments). Stock solutions of compounds and control compounds in DMSO were diluted with HBSS (10 mM HEPES, pH 7.4) to reach a final concentration of 5 μM with a final concentration of DMSO<0.1%. HBSS was then removed after 30 minutes of preincubation, and 75 μL of test compound was added to the apical compartment of the Transwell insert. The basolateral compartment was filled with 235 μL of HBSS (10 mM HEPES, pH 7.4) containing 2% BSA. Rate of drug transport in the basolateral to apical direction was obtained by adding 235 μL of test compound to the receiver plate wells (basolateral compartment) and filling with 75 μL of HBSS (10 mM HEPES, pH 7.4) containing 2% BSA. Time 0 samples were prepared by transferring 25 μL of […] working solution to wells of the 96-deepwell plate containing 25 μL HBSS (10 mM HEPES and 2% BSA, pH 7.4), followed by the addition 200 μL of cold methanol containing appropriate internal standards (100 nM alprazolam, 200 nM labetalol, 200 nM caffeine and 200 nM diclofenac). After incubating at 37° C. for 2 h, 25 μL samples from donor sides (apical compartment) were transferred to a 96-well plate containing 25 μL HBSS (10 mM HEPES and 2% BSA, pH 7.4). 25 μL samples from receiver sides (basolateral compartment) were removed and transferred to a new plate containing 25 μL HBSS (10 mM HEPES, pH 7.4). 200 μL of cold methanol containing internal standards (100 nM alprazolam, 200 nM labetalol, 200 nM caffeine and 200 nM diclofenac) was added to terminate the reaction. Samples were vortexed for 5 minutes and then centrifuged at 3,220 g for 40 minutes. An aliquot of 100 μL of the supernatant is mixed with 100 μL of ultra-pure water for LC-MS/MS analysis. All incubations are performed in duplicate. Solutions were discarded from the transwell plate. 100 μL Lucifer Yellow solution ([…] in HBSS) was added to each well of transwell insert and 300 μL of HBSS to each well of receiver. After incubating at 37° C. for 30 minutes, 80 μL was aliquoted from each well of apical and basolateral sides to a solid black plate. The plate was then read with Tecan Infinite™ M 200 (Excitation/Emission wavelength […]).
All calculations were carried out using Microsoft Excel. Peak areas were determined from extracted ion chromatograms. The leakage of Lucifer Yellow, in unit of percentage (%), can be calculated using the following equation: […]
LY leakage of <1% is acceptable to indicate the well-qualified Caco-2 monolayers. The apparent permeability coefficient (Papp), in units of centimeter per second, can be calculated for Caco-2 drug transport assays using the following equation: […]
Where VA is the volume (in mL) in the receiver well (0.235 mL for Ap→Bl flux and 0.075 mL for Bl→Ap flux), Area is the surface area of the membrane (0.143 cm^2 for HTS Transwell-96 Well Permeable Supports), and time is the total transport time in seconds. The efflux ratio can be determined using the following equation: […]
Where Papp (B-A) indicates the apparent permeability coefficient in basolateral to apical direction, and Papp (A-B) indicates the apparent permeability coefficient in apical to basolateral direction.
The recovery can be determined using the following equation: […]

OVCAR-3 cells = experiment: In vitro anti-proliferative activity assay in cancer cell line OVCAR-3 (CTG); format: cell-based; conditions: 7-day assay, read-out: OVCAR-3 cellular antiproliferation assay IC50

| IC50 (KIF18A) [µM] | efflux ratio at 2 h, 5 μM [2] | IC50 (OVCAR-3 cells; Homo sapiens, OVCAR-3, 168 h) [µM] | Structure (SMILES) | clearance [1] [L/h/kg] | further results |
| --- | --- | --- | --- | --- | --- |
| < 0.1 | – | 0.1 to 0.5 | Cc1cc(NC(=O)c2ccc(NS(=O)(=O)CCO)cc2N2CC[C@@]3(C(F)(F)F)C[C@H]3C2)nc(N2CCC(F)(F)CC2)n1 [Example 85] | – | – |
| < 0.1 | < 10 | 0.1 to 0.5 | Cc1cc(NC(=O)c2ccc(NS(=O)(=O)CCO)cc2N2CC[C@]3(C(F)(F)F)C[C@@H]3C2)nc(N2CCC(F)(F)CC2)n1 [Example 86] | – | – |
| 0.1 to 0.5 | < 10 | 0.1 to 0.5 | Cc1cc(NC(=O)c2ccc(NS(=O)(=O)NCCO)cc2N2CC[Si](C)(C)CC2)nc(C2CCC(F)(F)CC2)n1 [Example 117] | – | – |
| < 0.1 | < 10 | 0.1 to 0.5 | Cc1cc(NC(=O)c2ccc(NS(=O)(=O)N(C)CCO)cc2N2CC[Si](C)(C)CC2)nc(C2CCC(F)(F)CC2)n1 [Example 134] | – | – |

Continued, compound first:

| Structure (SMILES) | IC50 (KIF18A) [µM] | efflux ratio at 2 h, 5 μM [2] | IC50 (OVCAR-3 cells; Homo sapiens, OVCAR-3, 168 h) [µM] | clearance [1] [L/h/kg] | further results |
| --- | --- | --- | --- | --- | --- |
| Cc1cc(NC(=O)c2ccc(NS(=O)(=O)CCO)cc2N2CC[C@@]3(C(F)F)C[C@H]3C2)nc(N2CCC(F)(F)CC2)n1 (single isomer, unassigned) [Example 29b] | – | – | – | 0.198 | Tumor growth (OVCAR-3 xenografts): significant reduction in tumor growth in a dose-dependent manner |
| Cc1cc(NC(=O)c2c(F)cc(NS(=O)(=O)CCO)cc2N2CC[C@@]3(C)C[C@H]3C2)nc(N2CCC(F)(F)CC2)n1 (single isomer, unassigned) [Example 31b] | < 0.1 | – | – | – | – |
| Cc1cc(NC(=O)c2ccc(NS(=O)(=O)CCO)cc2N2CC[C@@]3(F)CC[C@H]3C2)nc(N2CCC(F)(F)CC2)n1 (single isomer, unassigned) [Example 50b] | – | – | – | 0.0444 | – |
| Cc1cc(NC(=O)c2ccc(NS(=O)(=O)CCO)cc2N2CC[Si](C)(C)CC2)nc(C2CCC(F)(F)CC2)n1 [Example 1, N-(2-(4,4-difluorocyclohexyl)-6-methylpyrimidin-4-yl)-2-(4,4-dimethyl-1,4-azasilinan-1-yl)-4-((2-hydroxyethyl)sulfonamido)benzamide] | – | – | – | 0.216 | – |
| Cc1cc(NC(=O)c2ccc(NS(=O)(=O)CCO)cc2N2CC[Si](C)(C)CC2)nc(N2CCC(F)(F)CC2)n1 [Example 9, N-[2-(4,4-difluoropiperidin-1-yl)-6-methylpyrimidin-4-yl]-2-(4,4-dimethyl-1,4-azasilinan-1-yl)-4-(2-hydroxyethanesulfonamido)benzamide] | – | – | – | 0.102 | – |
| C[Si]1(C)CCN(c2cc(NS(=O)(=O)CCO)ccc2C(=O)Nc2ccnc(OCCC(F)(F)F)n2)CC1 [Example 10] | – | < 10 | – | – | – |
| Cc1cc(NC(=O)c2ccc(NS(=O)(=O)CCO)cc2N2CC[C@]3(C)C[C@@H]3C2)nc(C2CCC(F)(F)CC2)n1 [Example 62] | < 0.1 | < 10 | < 0.1 | – | – |
| Cc1cc(NC(=O)c2ccc(NS(=O)(=O)CCO)cc2N2CC[C@@]3(C)C[C@H]3C2)nc(C2CCC(F)(F)CC2)n1 [Example 63] | < 0.1 | – | < 0.1 | – | – |
| O=C(Nc1ccnc(N2CCC(F)(F)CC2)n1)c1c(F)cc(NS(=O)(=O)CCO)cc1N1CC[C@@]2(C(F)F)C[C@H]2C1 [Example 84] | – | < 10 | – | – | IC50 (OVCAR-3 cells): 0.1 to 0.5 µM |

Source: US20260062430A1, “INHIBITORS OF KIF18A AND USES THEREOF” (ACCENT THERAPEUTICS, INC., priority 2022, published 2026)
